The source of these data is patent US20150307938A1, “METHOD TO IDENTIFY A NOVEL CLASS OF IMMUNOLOGIC ADJUVANTS” (Lancell, L.L.C., priority 2011, published 2015).

The nature of the series: Estimate of maximum absorbed dose from transdermal transport rate of DBP on human skin in vivo. Conditions: from known transdermal transport rate on human skin in vivo.

`CCCCOC(=O)c1ccccc1C(=O)OCCCC` [DBP, dibutylphthalate]: the “maximum absorbed dose from topical use as an adjuvant, vs LOEL in pregnant rats” value is on record as “five logs lower than the LOEL” and the “maximum absorbed dose from topical use as an adjuvant, vs amount ingested daily” value was “no higher than the amount we ingest daily”.
